Molecules are shown by their SMILES.

The values below come from ChEMBL document CHEMBL1944563, “Separation of Betti Reaction Product Enantiomers: Absolute Configuration and Inhibition of Botulinum Neurotoxin A” (ACS Med Chem Lett, 2011).

In test [1] the target is Botulinum neurotoxin type A (Clostridium botulinum (strain Hall / ATCC 3502 / NCTC 13319 / Type A)) (UniProt P0DPI1). Description: Inhibition of Clostridium botulinum Hall BoNT/A light chain using SNAP-25 (187 to 203) as substrate at 20 uM by HPLC analysis. The settings on record: Clostridium botulinum A str. Hall.
Sequence of Botulinum neurotoxin type A (Clostridium botulinum (strain Hall / ATCC 3502 / NCTC 13319 / Type A)) (P0DPI1 2-448 limits assumed): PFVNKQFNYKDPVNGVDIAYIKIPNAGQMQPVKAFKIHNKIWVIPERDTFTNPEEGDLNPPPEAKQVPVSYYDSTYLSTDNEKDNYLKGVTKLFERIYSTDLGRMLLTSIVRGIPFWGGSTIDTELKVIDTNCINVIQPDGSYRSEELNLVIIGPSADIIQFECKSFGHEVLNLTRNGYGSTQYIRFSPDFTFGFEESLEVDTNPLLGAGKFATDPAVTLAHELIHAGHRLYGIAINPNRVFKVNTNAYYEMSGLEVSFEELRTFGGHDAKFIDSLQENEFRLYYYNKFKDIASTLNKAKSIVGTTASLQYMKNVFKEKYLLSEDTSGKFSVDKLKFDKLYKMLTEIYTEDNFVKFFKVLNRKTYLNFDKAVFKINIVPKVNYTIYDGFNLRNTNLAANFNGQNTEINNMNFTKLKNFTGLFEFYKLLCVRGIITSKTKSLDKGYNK
The target is the same in test [2]. Briefly: Inhibition of Clostridium botulinum Hall BoNT/A light chain using SNAP-25 (187 to 203) as substrate at 5 uM by HPLC analysis. The settings on record: Clostridium botulinum A str. Hall.
Test [3] addresses Botulinum neurotoxin type A (Clostridium botulinum (strain Hall / ATCC 3502 / NCTC 13319 / Type A), UniProt P0DPI1). Description: Inhibition of Clostridium botulinum Hall BoNT/A light chain using SNAP-25 (187 to 203) as substrate by HPLC analysis. Details: species or system Clostridium botulinum A str. Hall.
In test [4] the target is Botulinum neurotoxin type A (Clostridium botulinum (strain Hall / ATCC 3502 / NCTC 13319 / Type A)) (UniProt P0DPI1). Description: Inhibition of Clostridium botulinum Hall BoNT/A-induced toxicity in mouse Neuro2a cells assessed as inhibition of SNAP25 substrate cleavage at 60 uM by Western blotting. Type of test: cell-based. The following applies: Clostridium botulinum A str. Hall. Background: In western blotting, separated proteins are transferred to a membrane and probed.

The target is the same in test [5]. Description: Inhibition of Clostridium botulinum Hall BoNT/A-induced toxicity in mouse Neuro2a cells assessed as inhibition of SNAP25 substrate cleavage at 45 uM by Western blotting. The class given is cell-based. The following applies: Clostridium botulinum A str. Hall.
For test [6] the target is unchanged. Briefly: Inhibition of Clostridium botulinum Hall BoNT/A-induced toxicity in mouse Neuro2a cells assessed as inhibition of SNAP25 substrate cleavage at 30 uM by Western blotting. The settings on record: Clostridium botulinum A str. Hall. The class given is cell-based.
The target is the same in test [7]. Description: Inhibition of Clostridium botulinum Hall BoNT/A-induced toxicity in mouse Neuro2a cells assessed as inhibition of SNAP25 substrate cleavage at 15 uM by Western blotting. The class given is cell-based. The settings on record: Clostridium botulinum A str. Hall.
Test [8] has the same target. Briefly: Inhibition of Clostridium botulinum Hall BoNT/A-induced paralysis in mouse phrenic nerve hemidiaphragm assessed as time required for loss of 50% twitch tension at 2 uM. The following applies: Clostridium botulinum A str. Hall.
Test [9] has the same target. Briefly: Inhibition of Clostridium botulinum Hall BoNT/A-induced paralysis in mouse phrenic nerve hemidiaphragm assessed as delay in paralytic half-time at 2 uM relative to control. The following applies: Clostridium botulinum A str. Hall.

Sequence of Botulinum neurotoxin type A (P0DPI1 2-448 limits assumed): as above

Take `Oc1c([C@H](Nc2ccccn2)c2ccccc2)cc(Cl)c2cccnc12`: the inhibition (as a rule, the percentage by which the read-out fell short of the control) in test [1] turned out to be 94%; in [2], 90%; in [4] it was 96%; in [5] it was 94%; in test [6], 89%; in [7] it was 56%. For the same molecule, it took 1.1 µM to reach half-maximal inhibition in test [3] (IC50). In addition, the TIME in test [8] worked out at 3.18 h. In addition, the fold change (FC) in test [9] was 3.

As to `Oc1c([C@@H](Nc2ccccn2)c2ccccc2)cc(Cl)c2cccnc12`, the inhibition in test [1] was 91%; in test [2], 90%; in [4], 96%; in test [5], 93%; in [6] it was 69%; in test [7], 54%. Besides, half-maximal inhibition in test [3] (IC50) was put at 1 µM. Moreover, the TIME in [8] was determined as 3.13 h. Also, the fold change (FC) in [9] was 3.

As to `Oc1c(C(Nc2ccccn2)c2ccccc2)cc(Cl)c2cccnc12` (racemic), the inhibition in test [1] came out at 92%; in test [2], 88%; in test [4], 91%; in test [5], 90%; in test [6], 74%; in test [7], 41%. For the same molecule, half-maximal inhibition in test [3] (IC50) required 1.5 µM.
